Data taken from patent publication US20060003924A1, “Sulfation-independent L-selectin or E-selectin ligand (HCELL) and therapeutics thereof” (priority 1994, published 2006).

Experiments:
KG1a cells = assay: Stamper-Woodruff lymphocyte adherence assay on KG1a cytospins (Example 9); type: cell-based, human; settings: Stamper-Woodruff assay
KG1a [1] = assay: Lymphocyte adherence assay on KG1a cytocentrifuge preparations (Examples 2-6); type: cell-based, human
LN HEV = assay: Lymphocyte adherence to frozen rat lymph node sections (LN HEV, positive control); type: cell-based
Experimental: Lymphocyte Adherence Assay. […] Cytocentrifuge preparations of KG1a or other cell lines were made on a Cytospin 3 Cytocentrifuge (Shandon Lipshaw, Pittsburgh, Pa.). Frozen rat LN sections […] thick were mounted on slides, and lymphocyte binding to LN HEV served as a positive control in all experiments.
Lymphocyte suspensions ([…]) were overlaid onto cytocentrifuge or LN sections in duplicate and placed on a rotating platform (80 rpm) at 4° C. for 30 minutes. Slides were then rinsed in cold PBS to remove non-adherent lymphocytes, fixed in 3% glutaraldehyde, and stained with methyl green-thionin. Slides were examined under the light microscope for adherence of lymphocytes to KG1a or LN HEV.

[2] = test system: CD44, LFA-1 (both a and b chains), and VLA-4; assay: Flow cytometry of CD44, LFA-1 and VLA-4 on PMA-treated PBL; type: cell-based, human; settings: vs control PBL
Experimental: (§1) PMA Treatment of Lymphocytes. Lymphocytes were suspended at 1′ 10^7 cells/ml in cell culture medium and incubated 1 hour at 37° C. with or without 10 ng/ml PMA (Gibco-BRL). Cells were then washed twice in PBS and used in either the lymphocyte binding assay or analyzed for surface antigens by flow cytometry (see below).
(§2) Antigen Expression by Flow Cytometry. Flow cytometric analysis was performed using the following commercially-available mAbs together with isotype-matched controls: TQ1 (anti-L-selectin), LAM1-3 (Anti-L-selectin), 4B4 (anti-VLA-4) (all from Coulter Corp.); QBEND10 (anti-CD34) (AMAC, Westbrook, Me.); anti-CD44, LFA-1-b (anti-CD18), LFA-1-a (anti-CD11a), HPCAS-2 (anti-CD34), anti-CD45, Leukosialin (anti-CD43), anti-Sialyl-Le^x (all from Becton Dickinson). Cells (1′ 10^6) in […] of PBS with 2% FBS were incubated on ice for 25 minutes with antibody as per manufacturer's recommendations, washed ′3 and analyzed on a FACStar^PLUS (Becton Dickinson).

L-selectin = assay: Flow cytometry of surface L-selectin (TQ1) on PMA-treated PBL; type: cell-based, human; settings: 10 ng/ml PMA, 1 hour 37° C.
Experimental: as §1, §2

protein synthesis = assay: 35S-methionine/cysteine incorporation into TCA-precipitable protein of KG1a; type: cell-based, human
Experimental: In each case, cells were cultured for 20 hours and the expression of L-selectin ligand activity was measured by adherence assay at the end of the culture period. For all studies utilizing metabolic inhibitors, parallel cultures were established in the presence of ^35S-methionine/cysteine and protein synthesis was measured by scintillation counting of trichloroacetic acid (TCA)-precipitable protein as previously described (27).

CD43 = assay: Flow cytometry of sialic acid-dependent L60 epitope of CD43 on KG1a after neuraminidase; type: cell-based, human; settings: KG1a cultured with the agent
KG1a [3] = assay: KG1a cell viability by trypan blue exclusion; type: cell-based, human; settings: KG1a after the treatment
sulfation = assay: 35S-SO4 pulse radiolabelling of KG1a, TCA-precipitable counts; settings: 10 mM chlorate, eight hour pulses within 24 hours
PSGL-1 on KG1a cells = assay: P-selectin-Ig binding to PSGL-1 on KG1a cells (flow cytometry); type: cell-based, human; settings: after treatment of KG1a

| SMILES | L-selectin ligand (HCELL) activity of KG1a / lymphocyte adherence (result in words) (KG1a cells) | lymphocyte binding to KG1a (result in words) (KG1a [1]) | Lymphocyte Adherence to KG1a, Mean of Binding (% of untreated control) (KG1a [1]; […], 1 mM EDTA, 10 mM mannose-6-P, 10 mg/ml PPME, 5 mg/ml fucoidin, 10 ng/ml PMA) | lymphocyte binding to LN control sections / LN HEV (result in words) (LN HEV) | expression of CD44, LFA-1 and VLA-4 following PMA exposure [2] | TQ1 mean channel fluorescence, of that of untreated cells (L-selectin) | protein synthesis (35S-methionine/cysteine TCA-precipitable counts) (protein synthesis) | return of the L60 epitope of CD43 after neuraminidase (CD43) | lymphocyte adherence to chlorate-incubated KG1a cells, that of neuraminidase-treated KG1a cells not incubated in chlorate (KG1a [1]; 24 hours after neuraminidase, 10 mM sodium chlorate, mean±SEM) [%] | Lymphocyte Adherence to KG1a, Mean of Binding (% of untreated control) (KG1a [1]; after neuraminidase, 24 hr culture with chlorate 10 mM, 20 hr culture with tunicamycin 15 ug/ml or cycloheximide 1.25 ug/ml) | Cell viability (trypan blue exclusion) (KG1a [3]) [%] | TCA-precipitable 35S-SO4 radiolabeled protein counts, that of non-chlorate treated controls (sulfation) [%] | P-selectin(-Ig) binding to PSGL-1 on KG1a cells (PSGL-1 on KG1a cells) |
| --- | --- | --- | --- | --- | --- | --- | --- | --- | --- | --- | --- | --- | --- |
| CCCCCCCCCCCCCC(=O)O[C@@H]1[C@@H](C)[C@@]2(O)[C@@H](C=C(CO)C[C@]3(O)C(=O)C(C)=C[C@@H]23)[C@@H]2C(C)(C)[C@]12OC(C)=O [PMA, phorbol myristate acetate] | complete elimination | unable to bind | 1.1 % of Untreated Control | unable to bind | identical | less than 10% | – | – | – | – | – | – | – |
| [O-][Cl+2]([O-])O [Chlorate, sodium chlorate] | did not alter | – | – | – | – | – | did not inhibit | did not block re-expression | 107 | 107.1 % of untreated control | > 95 | < 10 | eliminated |
